In the first experiment the test system is ER-alpha MCF7. As to the kind of experiment: ER-alpha MCF7 HCS EC50; stated as measured by in vitro cell proliferation assays of Examples 902 and 903. The settings on record: Homo sapiens, MCF7, MCF7 cells; Table 2. Format: cell-based. The gist of the method:
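MCF7 cells seeded 1000-2000 cells/well for 16 h, then treated with nine-point 1:2 DMSO dilution series in quadruplicate at 37 °C, 5% CO2 for 4 days. Viable cells quantified by CellTiter-Glo ATP luminescence; EC50 calculated. Controls: fulvestrant at final 100 nM, DMSO 0.2% v/v.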
For the molecule `C[C@@H]1Cc2c([nH]c3cccc(F)c23)[C@@H](c2c(F)cc(NC3CN(CCCF)C3)cc2F)N1CC(F)(F)F` [Example 407, N-(3,5-difluoro-4-((1R,3R)-5-fluoro-3-methyl-2-(2,2,2-trifluoroethyl)-2,3,4,9-tetrahydro-1H-pyrido[3,4-b]indol-1-yl)phenyl)-1-(3-fluoropropyl)azetidin-3-amine], the EC50 (usually the concentration that produces a half-maximal response) turned out to be 0.12 nM.

Consider `CC(C)CN1[C@H](c2c(F)cc(OCCN3CC(CF)C3)cc2F)c2[nH]c3ccccc3c2C[C@H]1C` [Example 197, (1R,3R)-1-[2,6-difluoro-4-[2-[3-(fluoromethyl)azetidin-1-yl]ethoxy]phenyl]-2-isobutyl-3-methyl-1,3,4,9-tetrahydropyrido[3,4-b]indole], for which the EC50 was 1 nM.

On to `C[C@@H]1Cc2c([nH]c3ccccc23)[C@@H](c2c(F)cc(OCCN3CC(CF)C3)cc2F)N1C[C@H](C)C(=O)N(C)C` [Example 297, (S)-3-((1R,3R)-1-(2,6-difluoro-4-(2-(3-(fluoromethyl)azetidin-1-yl)ethoxy)phenyl)-3-methyl-1,3,4,9-tetrahydro-2H-pyrido[3,4-b]indol-2-yl)-N,N,2-trimethylpropanamide], for which the EC50 turned out to be 18 nM.

In the case of `C[C@H](CN1[C@H](c2c(F)cc(OCCN3CC(CF)C3)cc2F)c2[nH]c3ccccc3c2C[C@H]1C)C(=O)O` [Example 300, (R)-3-((1R,3R)-1-(2,6-difluoro-4-(2-(3-(fluoromethyl)azetidin-1-yl)ethoxy)phenyl)-3-methyl-1,3,4,9-tetrahydro-2H-pyrido[3,4-b]indol-2-yl)-2-methylpropanoic acid], the EC50 stood at 1 nM.

Consider `C[C@H]1Cc2c([nH]c3cccc(F)c23)[C@H](c2c(F)cc(OC3CN(CCCF)C3)cc2F)N1CC(C)(C)F` [Example 253, (1S,3S)-1-(2,6-difluoro-4-((1-(3-fluoropropyl)azetidin-3-yl)oxy)phenyl)-5-fluoro-2-(2-fluoro-2-methylpropyl)-3-methyl-2,3,4,9-tetrahydro-1H-pyrido[3,4-b]indole], for which the EC50 was determined as 35 nM.

`C[C@@H]1Cc2c([nH]c3ccc(F)cc23)[C@@H](c2c(F)cc(OC3CN(CCCF)C3)cc2F)N1C[C@](C)(F)CO` [Example 368, 3-(1-{2,6-Difluoro-4-[1-(3-fluoro-propyl)-azetidin-3-yloxy]-phenyl}-6-fluoro-3-methyl-1,3,4,9-tetrahydro-beta-carbolin-2-yl)-2-fluoro-2-methyl-propan-1-ol]: the half-maximal effective concentration (EC50) is 0.546 nM.

In the case of `C[C@@H]1Cc2c([nH]c3ccccc23)[C@@H](c2ccc(OCCN3CC(CF)C3)cc2)N1C[C@](C)(F)CO` [Example 276, (S)-2-fluoro-3-((1R,3R)-1-(4-(2-(3-(fluoromethyl)azetidin-1-yl)ethoxy)phenyl)-3-methyl-1,3,4,9-tetrahydro-2H-pyrido[3,4-b]indol-2-yl)-2-methylpropan-1-ol], the concentration giving a half-maximal response (EC50) was 0.309 nM.

In the case of `C[C@@H]1Cc2c([nH]c3ccc(Cl)cc23)[C@@H](c2c(F)cc(OC3CN(CCCF)C3)cc2F)N1CC(C)(C)F` [Example 239, (1R,3R)-6-chloro-1-(2,6-difluoro-4-((1-(3-fluoropropyl)azetidin-3-yl)oxy)phenyl)-2-(2-fluoro-2-methylpropyl)-3-methyl-2,3,4,9-tetrahydro-1H-pyrido[3,4-b]indole], the concentration for a half-maximal effect (EC50) came to 1.56 nM.

With `C[C@@H]1Cc2c([nH]c3ccccc23)[C@@H](c2c(F)cc(OCCN3CC(CF)C3)cc2F)N1C[C@H](CO)CF` [Example 402, (R)-3-((1R,3R)-1-(2,6-difluoro-4-(2-(3-(fluoromethyl)azetidin-1-yl)ethoxy)phenyl)-3-methyl-3,4-dihydro-1H-pyrido[3,4-b]indol-2(9H)-yl)-2-(fluoromethyl)propan-1-ol], the EC50 was 0.032 nM.

As for `C[C@@H]1Cc2c([nH]c3ccccc23)[C@@H](c2c(F)cc(NC3CN(CCCF)C3)cc2F)N1CC(C)(C)C(=O)O` [Example 382, 3-((1R,3R)-1-(2,6-difluoro-4-((1-(3-fluoropropyl)azetidin-3-yl)amino)phenyl)-3-methyl-1,3,4,9-tetrahydro-2H-pyrido[3,4-b]indol-2-yl)-2,2-dimethylpropanoic acid], the EC50 came out at 1.01 nM.

As for `C[C@H]1Cc2c([nH]c3c(F)cccc23)[C@H](c2c(F)cc(NC3CN(CCCF)C3)cc2F)N1CC(F)(F)CO` [Example 422, 3-((1S,3S)-1-(2,6-difluoro-4-((1-(3-fluoropropyl)azetidin-3-yl)amino)phenyl)-8-fluoro-3-methyl-3,4-dihydro-1H-pyrido[3,4-b]indol-2(9H)-yl)-2,2-difluoropropan-1-ol], the EC50 was determined as 37.1 nM.

Take `C[C@@H]1Cc2c([nH]c3ccccc23)[C@@H](c2c(F)cc(N(C)C3CN(CCCF)C3)cc2F)N1CC(C)(C)F` [Example 404, N-(3,5-difluoro-4-((1R,3R)-2-(2-fluoro-2-methylpropyl)-3-methyl-2,3,4,9-tetrahydro-1H-pyrido[3,4-b]indol-1-yl)phenyl)-1-(3-fluoropropyl)-N-methylazetidin-3-amine]: the EC50 was found to be 0.745 nM.

Take `CCCN1CC(COc2cc(F)c([C@@H]3c4[nH]c5ccccc5c4C[C@@H](C)N3CC(C)(C)F)c(F)c2)C1` [Example 152, (1R,3R)-1-[2,6-difluoro-4-[(1-propylazetidin-3-yl)methoxy]phenyl]-2-(2-fluoro-2-methyl-propyl)-3-methyl-1,3,4,9-tetrahydropyrido[3,4-b]indole]: the EC50 came to 0.362 nM.

For `C[C@@H]1CCN(CCOc2cc(F)c([C@@H]3c4[nH]c5ccccc5c4C[C@@H](C)N3CC(C)(C)F)c(F)c2)C1` [Example 141, (1R,3R)-1-(2,6-difluoro-4-(2-((R)-3-methylpyrrolidin-1-yl)ethoxy)phenyl)-2-(2-fluoro-2-methylpropyl)-3-methyl-2,3,4,9-tetrahydro-1H-pyrido[3,4-b]indole], the EC50 is 0.151 nM.

As for `CC(C)N1CC(Oc2cc(F)c([C@@H]3c4[nH]c5ccccc5c4C[C@@H](C)N3CC(C)(C)F)c(F)c2)C1` [Example 168, (1R,3R)-1-[2,6-difluoro-4-(1-isopropylazetidin-3-yl)oxy-phenyl]-2-(2-fluoro-2-methyl-propyl)-3-methyl-1,3,4,9-tetrahydropyrido[3,4-b]indole], the EC50 is 0.122 nM.

Turning to `C[C@@H]1Cc2c([nH]c3ccc(F)cc23)[C@@H](c2c(F)cc(NC3CN(CCCF)C3)cc2F)N1C[C@](C)(F)CO` [Example 433, (S)-3-((1R,3R)-1-(2,6-difluoro-4-((1-(3-fluoropropyl)azetidin-3-yl)amino)phenyl)-6-fluoro-3-methyl-1,3,4,9-tetrahydro-2H-pyrido[3,4-b]indol-2-yl)-2-fluoro-2-methylpropan-1-ol], the EC50 is 0.0209 nM.

With `CC(=O)CN1[C@H](c2c(F)cc(OC3CN(CCCF)C3)cc2F)c2[nH]c3ccccc3c2C[C@H]1C` [Example 283, 1-[(1R,3R)-1-[2,6-difluoro-4-[1-(3-fluoropropyl)azetidin-3-yl]oxy-phenyl]-3-methyl-1,3,4,9-tetrahydropyrido[3,4-b]indol-2-yl]propan-2-one], the EC50 is 1 nM.

Staying with this experiment, now noted: MCF7 cells; Table 2.
Regarding `C[C@@H]1Cc2c([nH]c3ccccc23)[C@@H](c2c(F)cc(OC3CN(C4CC(CF)C4)C3)cc2F)N1CC(C)(C)F` (stereo partly drawn) [Example 392, (1R,3R)-1-(2,6-difluoro-4-((1- trans-(3-(fluoromethyl)cyclobutyl)azetidin-3-yl)oxy)phenyl)-2-(2-fluoro-2-methylpropyl)-3-methyl-2,3,4,9-tetrahydro-1H-pyrido[3,4-b]indole], the EC50 came out at 0.44 nM.

(Values after US20250114338A1, “TETRAHYDRO-PYRIDO[3,4-b]INDOLE ESTROGEN RECEPTOR MODULATORS AND USES THEREOF” (Genentech, Inc., priority 2014, published 2025).)
